According to patent US6525001B1, “Substituted pyrimidine and pyridine herbicides” (Mid-American Commercialization Corporation, priority 1997, dated 2003):

Assays:
Format in all cases: in vivo
[1] = system: barnyardgrass (Echinochloa crus-galli); assay: Test C; design: key: 0 was no effect; 100 was complete control; conditions: PREEMERGENCE
corn (Zea mays) = assay: Test C; design: key: 0 was no effect; 100 was complete control; conditions: PREEMERGENCE
[2] = system: fall panicum (Panicum dichotomiflorum); assay: Test C; design: key: 0 was no effect; 100 was complete control; conditions: PREEMERGENCE
[3] = system: hairy beggarticks (Bidens pilosa); assay: Test C; design: key: 0 was no effect; 100 was complete control; conditions: PREEMERGENCE
[4] = system: johnsongrass (Sorghum halepense); assay: Test C; conditions: PREEMERGENCE
[5] = system: redroot pigweed (Amaranthus retroflexus); assay: Test C; design: key: 0 was no effect; 100 was complete control; conditions: PREEMERGENCE
soybean (Glycine max) = assay: Test C; design: key: 0 was no effect; 100 was complete control; conditions: PREEMERGENCE
[6] = system: surinam grass (Brachiaria decumbens); assay: Test C; design: key: 0 was no effect; 100 was complete control; conditions: PREEMERGENCE
[7] = system: bermudagrass (Cynodon dactylon); assay: Test E pre-/postemergence/post directed; design: key: 0 is no effect; 100 is complete control; conditions: PREEMERGENCE
How it was run: (§1)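 Injury scored visually on a 0–100 scale (100 = complete control) 13 to 21 days after treatment. Test chemicals, formulated with surfactant in non-phytotoxic solvent, were applied to soil within one day of planting, to plants at two to four leaves (three to twenty cm), or as directed spray at plant base.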

[8] = system: common groundsel (Senecio vulgaris); assay: Test E pre-/postemergence/post directed; design: key: 0 is no effect; 100 is complete control; conditions: PREEMERGENCE
How it was run: as §1

[9] = system: common purslane (Portulaca oleracea); assay: Test E pre-/postemergence/post directed; design: key: 0 is no effect; 100 is complete control
How it was run: as §1

[10] = system: common ragweed (Ambrosia elatior); assay: Test E pre-/postemergence/post directed; design: key: 0 is no effect; 100 is complete control; conditions: PREEMERGENCE
How it was run: as §1

[11] = system: dallisgrass (Paspalum dilatatum); assay: Test E pre-/postemergence/post directed; design: key: 0 is no effect; 100 is complete control
How it was run: as §1

[12] = system: goosegrass (Eleusine indica); assay: Test E pre-/postemergence/post directed; design: key: 0 is no effect; 100 is complete control
How it was run: as §1

[13] = system: guineagrass (Panicum maximum); assay: Test E pre-/postemergence/post directed; design: key: 0 is no effect; 100 is complete control
How it was run: as §1

[14] = system: large crabgrass (Digitaria sanguinalis); assay: Test E pre-/postemergence/post directed; design: key: 0 is no effect; 100 is complete control; conditions: PREEMERGENCE
How it was run: as §1

[15] = system: sourgrass (Trichachne insularis); assay: Test E pre-/postemergence/post directed; design: key: 0 is no effect; 100 is complete control
How it was run: as §1

[16] = system: surinam grass (Brachiaria decumbens); assay: Test E pre-/postemergence/post directed; design: key: 0 is no effect; 100 is complete control; conditions: PREEMERGENCE
How it was run: as §1

[17] = system: tall mallow (Malva sylvestris); assay: Test E pre-/postemergence/post directed; design: key: 0 is no effect; 100 is complete control; conditions: PREEMERGENCE
How it was run: as §1

Cc1cnc(-n2ccc(C(F)(F)F)n2)nc1Cc1cccc(C(F)(F)F)c1 [Example 2, 5-methyl-4-[[3-(trifluoromethyl)phenyl]methyl]-2-[3-(trifluoromethyl)-1H-pyrazol-1-yl]pyrimidine]
Plant response rating, Barnyardgrass ([1]; Rate 35 g/ha): 0 | Plant response rating, Barnyardgrass ([1]; Rate 70 g/ha): 5 | Plant response rating, Barnyardgrass ([1]; Rate 140 g/ha): 30 | Plant response rating, Corn (corn (Zea mays); Rate 35 g/ha): 0 | Plant response rating, Corn (corn (Zea mays); Rate 70 g/ha): 0 | Plant response rating, Corn (corn (Zea mays); Rate 140 g/ha): 30 | Plant response rating, Fall panicum ([2]; Rate 35 g/ha): 0 | Plant response rating, Fall panicum ([2]; Rate 70 g/ha): 5 | Plant response rating, Fall panicum ([2]; Rate 140 g/ha): 100 | Plant response rating, H. beggarticks ([3]; Rate 35 g/ha): 40 | Plant response rating, H. beggarticks ([3]; Rate 70 g/ha): 40 | Plant response rating, H. beggarticks ([3]; Rate 140 g/ha): 100 | Plant response rating, Johnsongrass ([4]; Rate 35 g/ha): 5 | Plant response rating, Johnsongrass ([4]; Rate 70 g/ha): 5 | Plant response rating, Johnsongrass ([4]; Rate 140 g/ha): 60 | Plant response rating, Redroot pigweed ([5]; Rate 35 g/ha): 5 | Plant response rating, Redroot pigweed ([5]; Rate 70 g/ha): 5 | Plant response rating, Redroot pigweed ([5]; Rate 140 g/ha): 100 | Plant response rating, Soybean (soybean (Glycine max); Rate 35 g/ha): 0 | Plant response rating, Soybean (soybean (Glycine max); Rate 70 g/ha): 0 | Plant response rating, Soybean (soybean (Glycine max); Rate 140 g/ha): 40 | Plant response rating, Surinam grass ([6]; Rate 35 g/ha): 0 | Plant response rating, Surinam grass ([6]; Rate 70 g/ha): 10 | Plant response rating, Surinam grass ([6]; Rate 140 g/ha): 35 | Plant response rating, Bermudagrass ([7]; Rate 64 g/ha): 100 | Plant response rating, Bermudagrass ([7]; Rate 125 g/ha): 100 | Plant response rating, Bermudagrass ([7]; Rate 250 g/ha): 100 | Plant response rating, Bermudagrass ([7]; Rate 500 g/ha): 100 | Plant response rating, Com. groundsel ([8]; Rate 32 g/ha): 100 | Plant response rating, Com. groundsel ([8]; Rate 64 g/ha): 100 | Plant response rating, Com. groundsel ([8]; Rate 125 g/ha): 100 | Plant response rating, Com. groundsel ([8]; Rate 250 g/ha): 100 | Plant response rating, Com. groundsel ([8]; Rate 500 g/ha): 100 | Plant response rating, Com. purslane ([9]; POSTEMERGENCE, Rate 32 g/ha): 65 | Plant response rating, Com. purslane ([9]; POSTEMERGENCE, Rate 64 g/ha): 65 | Plant response rating, Com. purslane ([9]; POSTEMERGENCE, Rate 125 g/ha): 65 | Plant response rating, Com. purslane ([9]; POSTEMERGENCE, Rate 250 g/ha): 70 | Plant response rating, Com. purslane ([9]; POSTEMERGENCE, Rate 500 g/ha): 70 | Plant response rating, Com. purslane ([9]; PREEMERGENCE, Rate 32 g/ha): 100 | Plant response rating, Com. purslane ([9]; PREEMERGENCE, Rate 64 g/ha): 100 | Plant response rating, Com. purslane ([9]; PREEMERGENCE, Rate 125 g/ha): 100 | Plant response rating, Com. purslane ([9]; PREEMERGENCE, Rate 250 g/ha): 100 | Plant response rating, Com. purslane ([9]; PREEMERGENCE, Rate 500 g/ha): 100 | Plant response rating, Com. ragweed ([10]; Rate 32 g/ha): 100 | Plant response rating, Com. ragweed ([10]; Rate 64 g/ha): 100 | Plant response rating, Com. ragweed ([10]; Rate 125 g/ha): 100 | Plant response rating, Com. ragweed ([10]; Rate 250 g/ha): 100 | Plant response rating, Com. ragweed ([10]; Rate 500 g/ha): 100 | Plant response rating, Dallisgrass ([11]; POSTEMERGENCE, Rate 32 g/ha): 10 | Plant response rating, Dallisgrass ([11]; POSTEMERGENCE, Rate 64 g/ha): 40 | Plant response rating, Dallisgrass ([11]; POSTEMERGENCE, Rate 125 g/ha): 70 | Plant response rating, Dallisgrass ([11]; POSTEMERGENCE, Rate 250 g/ha): 90 | Plant response rating, Dallisgrass ([11]; POSTEMERGENCE, Rate 500 g/ha): 95 | Plant response rating, Dallisgrass ([11]; PREEMERGENCE, Rate 32 g/ha): 90 | Plant response rating, Dallisgrass ([11]; PREEMERGENCE, Rate 64 g/ha): 100 | Plant response rating, Dallisgrass ([11]; PREEMERGENCE, Rate 125 g/ha): 100 | Plant response rating, Dallisgrass ([11]; PREEMERGENCE, Rate 250 g/ha): 100 | Plant response rating, Dallisgrass ([11]; PREEMERGENCE, Rate 500 g/ha): 100 | Plant response rating, Goosegrass ([12]; POSTEMERGENCE, Rate 32 g/ha): 60 | Plant response rating, Goosegrass ([12]; POSTEMERGENCE, Rate 64 g/ha): 75 | Plant response rating, Goosegrass ([12]; POSTEMERGENCE, Rate 250 g/ha): 90 | Plant response rating, Goosegrass ([12]; POSTEMERGENCE, Rate 500 g/ha): 95 | Plant response rating, Goosegrass ([12]; PREEMERGENCE, Rate 32 g/ha): 95 | Plant response rating, Goosegrass ([12]; PREEMERGENCE, Rate 64 g/ha): 100 | Plant response rating, Goosegrass ([12]; PREEMERGENCE, Rate 125 g/ha): 100 | Plant response rating, Goosegrass ([12]; PREEMERGENCE, Rate 250 g/ha): 100 | Plant response rating, Goosegrass ([12]; PREEMERGENCE, Rate 500 g/ha): 100 | Plant response rating, Guineagrass ([13]; POSTEMERGENCE, Rate 32 g/ha): 5 | Plant response rating, Guineagrass ([13]; POSTEMERGENCE, Rate 125 g/ha): 50 | Plant response rating, Guineagrass ([13]; POSTEMERGENCE, Rate 250 g/ha): 50 | Plant response rating, Guineagrass ([13]; POSTEMERGENCE, Rate 500 g/ha): 90 | Plant response rating, Guineagrass ([13]; PREEMERGENCE, Rate 32 g/ha): 50 | Plant response rating, Guineagrass ([13]; PREEMERGENCE, Rate 64 g/ha): 50 | Plant response rating, Guineagrass ([13]; PREEMERGENCE, Rate 125 g/ha): 100 | Plant response rating, Guineagrass ([13]; PREEMERGENCE, Rate 250 g/ha): 100 | Plant response rating, Large crabgrass ([14]; Rate 64 g/ha): 100 | Plant response rating, Large crabgrass ([14]; Rate 125 g/ha): 100 | Plant response rating, Large crabgrass ([14]; Rate 250 g/ha): 100 | Plant response rating, Large crabgrass ([14]; Rate 500 g/ha): 100 | Plant response rating, Sourgrass ([15]; POSTEMERGENCE, Rate 32 g/ha): 10 | Plant response rating, Sourgrass ([15]; POSTEMERGENCE, Rate 64 g/ha): 20 | Plant response rating, Sourgrass ([15]; POSTEMERGENCE, Rate 125 g/ha): 20 | Plant response rating, Sourgrass ([15]; POSTEMERGENCE, Rate 250 g/ha): 40 | Plant response rating, Sourgrass ([15]; POSTEMERGENCE, Rate 500 g/ha): 80 | Plant response rating, Sourgrass ([15]; PREEMERGENCE, Rate 32 g/ha): 100 | Plant response rating, Sourgrass ([15]; PREEMERGENCE, Rate 64 g/ha): 100 | Plant response rating, Sourgrass ([15]; PREEMERGENCE, Rate 125 g/ha): 100 | Plant response rating, Sourgrass ([15]; PREEMERGENCE, Rate 250 g/ha): 100 | Plant response rating, Sourgrass ([15]; PREEMERGENCE, Rate 500 g/ha): 100 | Plant response rating, Surinam grass ([16]; Rate 125 g/ha): 100 | Plant response rating, Surinam grass ([16]; Rate 250 g/ha): 100 | Plant response rating, Surinam grass ([16]; Rate 500 g/ha): 100 | Plant response rating, Tall Mallow ([17]; Rate 32 g/ha): 98 | Plant response rating, Tall Mallow ([17]; Rate 64 g/ha): 100 | Plant response rating, Tall Mallow ([17]; Rate 125 g/ha): 100 | Plant response rating, Tall Mallow ([17]; Rate 250 g/ha): 100 | Plant response rating, Tall Mallow ([17]; Rate 500 g/ha): 100
